Laboratory results as given in ChEMBL document CHEMBL5385858, “Identification of novel Pyrrolo[2,3-d]Pyrimidine-based KRAS G12C inhibitors with anticancer effects” (Eur J Med Chem, 2023).
Active and inactive are the calls of the source. No cut-off for these calls is given here.

Columns and labels:
SOS1-KRAS = SOS1-KRAS (Homo sapiens, UniProt P01116, G12C); experiment: Inhibition of KRAS G12C mutant/SOS1 (unknown origin) interaction incubated for 2 hrs in presence of GTP by HTRF assay; format: protein-complex assay
NCI-H358 [1] = experiment: Antiproliferative activity against human NCI-H358 cells harboring KRAS G12C mutant assessed as inhibition of cell proliferation incubated for 3 days by CCK8 assay; format: functional, cell-based; conditions: NCI-H358, 72 h
MIA PaCa-2 = experiment: Antiproliferative activity against human MIA PaCa-2 cells harboring KRAS G12C mutant assessed as inhibition of cell proliferation incubated for 3 days by CCK8 assay; format: functional, cell-based; conditions: MIA PaCa-2, 72 h
NCI-H1975 = experiment: Antiproliferative activity against human NCI-H1975 cells harboring wild-type KRAS assessed as inhibition of cell proliferation incubated for 3 days by CCK8 assay; format: functional, cell-based; conditions: NCI-H1975, 72 h
A549 = experiment: Antiproliferative activity against human A549 cells harboring KRAS G12S mutant assessed as inhibition of cell proliferation incubated for 3 days by CCK8 assay; format: functional, cell-based; conditions: A549, 72 h
NCI-H358 [2] = experiment: Antiproliferative activity against human NCI-H358 cells harboring KRAS G12C/Y96D mutant assessed as inhibition of cell proliferation incubated for 48 hrs by CCK8 assay; format: functional, cell-based
NCI-H358 [3] = experiment: Induction of apoptosis in human NCI-H358 cells assessed as viable cells at 0.1 uM incubated for 24 hrs by Annexin V-FITC/PI staining based flow cytometry (reference value: 91.4 %); format: functional
NCI-H358 [4] = experiment: Induction of apoptosis in human NCI-H358 cells assessed as early apoptotic cells at 0.1 uM incubated for 24 hrs by Annexin V-FITC/PI staining based flow cytometry (reference value: 5.4 %); format: functional
NCI-H358 [5] = experiment: Induction of apoptosis in human NCI-H358 cells assessed as late apoptotic cells at 0.1 uM incubated for 24 hrs by Annexin V-FITC/PI staining based flow cytometry (reference value: 1.32 %); format: functional
NCI-H358 [6] = experiment: Induction of apoptosis in human NCI-H358 cells assessed as necrotic cells at 0.1 uM incubated for 24 hrs by Annexin V-FITC/PI staining based flow cytometry (reference value: 1.88 %); format: functional
NCI-H358 [7] = experiment: Inhibition of cell migration in human NCI-H358 cells at 0.1 uM measured for 48 hrs by wound scratch assay; format: functional, cell-based
NCI-H358 [8] = experiment: Inhibition of cell invasion in human NCI-H358 cells measured for 24 hrs by transwell assay; format: functional, cell-based
NCI-H358 [9] = experiment: Antitumor activity in human NCI-H358 cells xenografted in BALB/c-nu/nu mouse assessed as tumor growth inhibition at 10 mg/kg, po qd treated for 20 days relative to control; format: functional; conditions: time 20 day

Sequence of SOS1-KRAS (P01116 whole entry G12C, looked up): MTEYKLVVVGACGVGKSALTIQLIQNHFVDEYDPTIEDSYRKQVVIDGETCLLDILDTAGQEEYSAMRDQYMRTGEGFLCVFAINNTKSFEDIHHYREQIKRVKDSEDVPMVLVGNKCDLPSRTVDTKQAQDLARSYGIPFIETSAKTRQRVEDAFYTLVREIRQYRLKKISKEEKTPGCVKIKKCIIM

Row | SMILES | IC50 (SOS1-KRAS) | also measured
1 | C=CC(=O)N1CCN(c2nc(N3CCN(C)CC3)nc3c2cc(-c2cccc4cccc(C)c24)n3C)C[C@@H]1CC#N | > 10 µM | –
2 | C=CC(=O)N1CCN(c2nc(OCC34CCCN3CCC4)nc3c2cc(-c2cccc4cccc(C)c24)n3C)C[C@@H]1CC#N | 0.34 µM | –
3 | C=CC(=O)N1CCN(c2nc(OC[C@@H]3CCCN3C)nc3c2cc(-c2cccc4cccc(C)c24)n3C)C[C@@H]1CC#N | 1.54 µM | –
4 | C=CC(=O)N1CCN(c2nc(OC[C@H]3CCCN3C)nc3c2cc(-c2cccc4cccc(C)c24)n3C)C[C@@H]1CC#N | 1.94 µM | –
5 | C=CC(=O)N1CCN(c2nc(OC[C@@H]3CCCN3C)nc3c2cc(-c2cccc4cccc(O)c24)n3C)C[C@@H]1CC#N | 3.24 µM | –
6 | C=CC(=O)N1CCN(c2nc(OC[C@@H]3CCCN3C)nc3c2cc(-c2cc(OC)cc4ccccc24)n3C)C[C@@H]1CC#N | > 10 µM | –
7 | C=CC(=O)N1CCN(c2nc(OC[C@@H]3CCCN3C)nc3c2cc(-c2c(C)ccc4c2cnn4C)n3C)C[C@@H]1CC#N | > 10 µM | –
8 | C=CC(=O)N1CCN(c2nc(OC[C@@H]3CCCN3C)nc3c2cc(-c2cc(O)cc4ccccc24)n3C)C[C@@H]1CC#N | 2.04 µM | –
9 | C=CC(=O)N1CCN(c2nc(OCCN(C(C)C)C(C)C)nc3c2cc(-c2cccc4cccc(C)c24)n3C)C[C@@H]1CC#N | > 10 µM | –
10 | C=CC(=O)N1CCN(c2nc(OC[C@@H]3CCCN3C)nc3c2cc(-c2ccc4[nH]ncc4c2)n3C)C[C@@H]1CC#N | > 10 µM | –
11 | C=C(F)C(=O)N1CCN(c2nc(OC[C@@H]3CCCN3C)nc3c2CCN(c2cccc4cccc(Cl)c24)C3)C[C@@H]1CC#N [ADAGRASIB] | – | IC50 (NCI-H358 [1]): 20 nM; IC50 (MIA PaCa-2): 50 nM; IC50 (NCI-H1975): 6.37 µM; IC50 (A549): 12.9 µM; inhibition (NCI-H358 [2]): inactive; Activity (NCI-H358 [3]): 79.9%; Activity (NCI-H358 [4]): 14.5%; Activity (NCI-H358 [5]): 4.52%; Activity (NCI-H358 [6]): 1.04%; Activity (NCI-H358 [7]): Active; Activity (NCI-H358 [8]): Dose-Dependent Effect; TGI (NCI-H358 [9]): 69.3%
12 | C=CC(=O)N1CCN(c2nc(OC[C@@H]3CCCN3C)nc3c2cc(-c2cccc4cccc(OC)c24)n3C)C[C@@H]1CC#N | > 10 µM | –
13 | C=CC(=O)N1CCN(c2nc(NCCN(C)C)nc3c2cc(-c2cccc4cccc(C)c24)n3C)C[C@@H]1CC#N | > 10 µM | –
14 | C=CC(=O)N1CCN(c2nc(N3CCOCC3)nc3c2cc(-c2cccc4cccc(C)c24)n3C)C[C@@H]1CC#N | > 10 µM | –
15 | C=CC(=O)N1CCN(c2nc(OCCN(C)C)nc3c2cc(-c2cccc4cccc(C)c24)n3C)C[C@@H]1CC#N | > 10 µM | –
16 | C=CC(=O)N1CCN(c2nc(OC[C@@H]3CCCN3C)nc3c2cc(-c2c(C)ccc4[nH]ncc24)n3C)C[C@@H]1CC#N | > 10 µM | –
